Laboratory results as given in paper PMC6085657, “DNA display of fragment pairs as a tool for the discovery of novel biologically active small molecules” (Chemical Science, 2014).
Values joined by “and” are separate entries in the source; they are usually repeats but may differ in a detail not shown here. Equal entries are not always repeated. “Also recorded” adds a separate entry of the source. Where two headings read alike, the source gives them in different places.

Tests used:
Hsp70 [1] = biological target: T1, Hsp70 (Homo sapiens, UniProt P0DMV8); test: SPR affinity measurement, biotinylated compounds immobilized on a streptavidin chip, Hsp70 analyte; assay type: binding; settings: compound immobilized on streptavidin chip, values in parentheses have chi2 > 10
T1 sequence (P0DMV8 whole entry): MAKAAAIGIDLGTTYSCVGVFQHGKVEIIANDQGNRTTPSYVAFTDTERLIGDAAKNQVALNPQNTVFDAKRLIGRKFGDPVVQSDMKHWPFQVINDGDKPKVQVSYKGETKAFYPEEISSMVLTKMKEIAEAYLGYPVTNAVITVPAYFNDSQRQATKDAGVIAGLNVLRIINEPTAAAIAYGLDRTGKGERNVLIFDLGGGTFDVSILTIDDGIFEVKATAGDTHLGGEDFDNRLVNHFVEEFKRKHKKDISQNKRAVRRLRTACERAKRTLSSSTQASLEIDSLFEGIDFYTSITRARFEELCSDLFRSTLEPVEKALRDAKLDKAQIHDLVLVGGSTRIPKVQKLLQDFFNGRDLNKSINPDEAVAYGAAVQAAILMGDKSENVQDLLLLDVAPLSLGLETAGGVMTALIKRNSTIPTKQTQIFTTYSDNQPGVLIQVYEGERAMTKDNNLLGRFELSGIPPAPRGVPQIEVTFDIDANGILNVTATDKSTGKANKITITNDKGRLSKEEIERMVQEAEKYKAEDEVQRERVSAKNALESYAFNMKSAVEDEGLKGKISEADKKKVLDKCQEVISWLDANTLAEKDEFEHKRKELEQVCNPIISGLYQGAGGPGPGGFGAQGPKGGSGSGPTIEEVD

Hsp70-GST [2] = biological target: T2, Hsp70-GST (Homo sapiens, UniProt P0DMV8); test: Microarray-based screen of the focused library against Hsp70-GST (fluorescence, anti-GST DyLight 649); assay type: binding; settings: fluorescence intensity on the microarray, mean of four spots, SD between 5% and 10%; PNA-tagged library member
T2 construct: purchased Signal Chem H34-54G
T2 sequence (P0DMV8 whole entry): as above
Description: A microarray pairing 125 biologically validated fragments[11] (FDA-approved drugs, bioactive natural products or fragments thereof) with a library of 500 heterocycles was used as a preliminary screen.[6] The microarray contained 62 500 unique DNA sequences that combinatorially paired both fragment libraries. […] The result from this screen with Hsp70 is shown in Fig. 2, arranged with fragments from the 125-fragment set and 500-fragment set on horizontal and vertical lines, respectively. The recurrence of binding across a line reflects the fitness of a given fragment. Thus, line intensities were used to rank the different fragments. What is interesting is that lines across the library of the 500-fragment set (4B, 24B, 44B, 84B, 124B, …) shared a common structural motif (biaryl-ether; Fig. 2). […] It is noteworthy that this biaryl moiety is part of a previously reported Hsp70 ligand (MAL3-101).[13],[14] […] Although screening fragments as conjugates to a nucleic acid tag restricts their binding mode to a particular orientation (the orientation that will position the linker to the tag toward the outside of the binding pocket), it greatly facilitates the synthesis of the corresponding covalent adduct combining both fragments, as the same chemistry that was used to link the fragments to the tag can be used to covalently pair them. Nonetheless, the linker length and conformational bias must be identified experimentally. We reasoned that the identified fragments could be used as the starting point for a focused library covalently pairing the fragments. This would allow for supplementing the selected fragment set with new entities (near neighbours) and enriching the local diversity space around these initial hits. Such iterative processes are highly efficient in sifting through a large diversity space. Following this strategy, we designed an Hsp70-focused library of 10 000 members using 20 fragments A × 5 different linkers with different lengths and geometrical constraints × 100 fragments B. The 100-fragment set contained 90 entities that were not present in the original screen. To be viable, an iterative library synthesis approach should be leveraged on chemistry that is compatible with SPPS and can be performed by automated PNA-encoded synthesis. As shown in Scheme 1, this was achieved through the use of three orthogonal amino group masking strategies (Mtt, Fmoc, and azide) that enabled selective chemical reactions at both sites of the linker joining the fragment and the encoding site. Thus, a resin derivatized with lysine with orthogonal protecting groups (Mtt and N3) was split into 100 pools and deprotected on one end (Mtt deprotection using HFIP), and the different linkers to join both fragments were introduced by standard peptide coupling method, affording the two sites for fragment coupling protected by Fmoc and Mtt, respectively.[15] The fragments were coupled using two different chemistries: for fragments containing a carboxylic acid, DIC/HOBt was used; for fragments with an amino group, hydroxyl, or aniline, the amino-functionalized linker was first treated with 4-nitrophenylchloroformate and the resulting carbamate coupled with the fragment. The azide was next reduced and the first 100 pools were encoded with a 7mer Boc-protected PNA sequence. The resins were mixed and split to introduce the second encoding 7mer sequence followed by deprotection of Mtt and the introduction of the corresponding second fragments. The success of each fragment coupling and encoding step was verified by MALDI analysis of an analytical sample. Cleavage of the final library and hybridization afforded the spatially resolved 10 000-member Hsp70-focused library. A slide containing 4-fold redundancy of each DNA sequence randomly distributed on the array was used to have four data points for each small molecule–target interaction, thus allowing a statistical analysis of the hits. The array was screened under three different conditions: Hsp70, Hsp70 + Hsp40, and Hsp70 + ATP. […]

Hsp90 [3] = test: SPR affinity measurement, biotinylated compounds immobilized on a streptavidin chip, Hsp90 analyte; assay type: binding; settings: compound immobilized on streptavidin chip, values in parentheses have chi2 > 10
Hsp70 [4] = biological target: T1, Hsp70; test: Pull-down of Hsp70 from crude HEK cell lysates, Western blot; assay type: binding; settings: HEK lysate, Western blot with anti-Hsp70 antibody
[5] = biological target: T3, Heat shock 70 kDa protein 1A/1B (Homo sapiens, UniProt P0DMV8); test: Proteomic (MS-MS) analysis of pull-down from HEK crude cell lysate; assay type: binding; settings: Hsp71_HUMAN in pull-down from HEK crude cell lysate
T3 construct: endogenous in cells; host or cells: HEK293-T
T3 sequence (P0DMV8 whole entry): as above

Hsp70-GST [6] = biological target: T2, Hsp70-GST; test: Protein pull-down with ligand immobilized on streptavidin magnetic beads, Hsp70; assay type: binding; settings: recombinant Hsp70-GST 300 nM, SDS PAGE
carbonic anhydrase = biological target: T4, carbonic anhydrase (Homo sapiens, UniProt P00918); test: Pull-down from crude HEK cell lysates, Western blot for carbonic anhydrase (negative control); assay type: binding; settings: HEK lysate, negative control protein
T4 construct: endogenous in cells; host or cells: HEK293-T

Hsp90 [7] = test: Protein pull-down with ligand immobilized on streptavidin magnetic beads, Hsp90; assay type: binding; settings: recombinant Hsp90 300 nM, SDS PAGE
Hsp70 [8] = biological target: T1, Hsp70; design: method as in PMID 16806043; settings: read-out: affinity of Hsp70 for ligand; cited from earlier work
Hsp70 [9] = biological target: T1, Hsp70; test: Fluorescence polarization displacement assay with 1-FITC; assay type: binding; settings: 1-FITC 25 nM, Hsp70 100 nM; R2 = 0.998; read-out: Affinity for Hsp70 by fluorescence polarization displacement (IC50)
Hsp70/Hsp40 = biological target: T5, Hsp70/Hsp40 (Homo sapiens, UniProt P0DMV8); test: Malachite Green Hsp70 ATPase assay; assay type: biochemical; settings: for inhibition at 1 µM: 1 molar equivalent to Hsp70 (1 μM), read-out: ATPase inhibition in dose response; for ATPase inhibition: 200 molar equivalence of inhibitor (200 μM), Hsp70/Hsp40 1 μM, ATP 1 mM
T5 construct: purchased Novus Biologicals NBC1-18367
T5 sequence (P0DMV8 whole entry): as above

Hsp70 [10] = biological target: T1, Hsp70; design: method as in PMID 15448148; settings: cited from earlier work

Row | Kd (Hsp70 [1]) | FU microarray HSP70-GST (Hsp70-GST [2]) | Kd (Hsp90 [3]) [nM] | Compound | other results
1 | 2.02 nM | 28 174 FU | 10.1 | CSc1nnc(CCCOC(=O)NCC(NC(=O)CCC(=O)c2ccc(-c3ccccc3)cc2)C(=O)NCCCCC(NC(=O)COCCOCCNC(=O)CCCCC2SCC3NC(=O)NC32)C(N)=O)n1-c1ccc(Cl)cc1Cl (stereo not drawn) [Compound 12a] | 
2 | 12 nM and 12.1 nM | 27 941 FU | 5.6 | CC(C(=O)Nc1cccc(C(=O)NC(CNC(=O)c2ccc3[nH]nc(Br)c3c2)C(=O)NCCCCC(NC(=O)COCCOCCNC(=O)CCCCC2SCC3NC(=O)NC32)C(N)=O)c1)c1cccc(Oc2ccccc2)c1 (stereo not drawn) [Compound 11a] | 
3 | 1.3 nM | 28 732 FU | 35.3 | Cc1ccc(C(=O)NCC(NC(=O)c2cccc(NS(=O)(=O)c3ccc(Oc4ccccc4)cc3)c2)C(=O)NCCCCC(NC(=O)COCCOCCNC(=O)CCCCC2SCC3NC(=O)NC32)C(N)=O)cc1[N+](=O)[O-] (stereo not drawn) [Compound 15a] | 
4 | 2.33 nM | 28 958 FU | 18.7 | CSc1nnc(CCCOC(=O)NCCCCC(NS(=O)(=O)c2ccc(-c3ccccc3)cc2)C(=O)NCCCCC(NC(=O)COCCOCCNC(=O)CCCCC2SCC3NC(=O)NC32)C(N)=O)n1-c1ccc(Cl)cc1Cl (stereo not drawn) [Compound 6a] | 
5 | 1.16 nM | 27 215 FU | 29.5 | CCC(COC(=O)NCCCCC(NC(=O)CC1=C(C)C(=Cc2ccc([S+](C)[O-])cc2)c2ccc(F)cc21)C(=O)NCCCCC(NC(=O)COCCOCCNC(=O)CCCCC1SCC2NC(=O)NC21)C(N)=O)c1ccccc1 (stereo not drawn) [Compound 13a] | 
6 | 0.64 nM | 29 024 FU | 14.7 | NC(=O)C(CCCCNC(=O)C(CNC(=O)c1ccc2[nH]nc(Br)c2c1)NC(=O)c1cccc(NC(=O)CCC(=O)c2ccc(-c3ccccc3)cc2)c1)NC(=O)COCCOCCNC(=O)CCCCC1SCC2NC(=O)NC21 (stereo not drawn) [Compound 9a] | 
7 | 0.38 nM | 28 447 FU | 5.44 | NC(=O)C(CCCCNC(=O)C(CNC(=O)c1cccc(-c2cccnc2)c1)NC(=O)c1ccc(NC(=O)COCC(=O)N2CCCN(S(=O)(=O)c3cccc4cnccc34)CC2)cc1)NC(=O)COCCOCCNC(=O)CCCCC1SCC2NC(=O)NC21 (stereo not drawn) [Compound 5a] | 
8 | 2.88 nM | 28 588 FU | 52.8 | COc1ccc(C=CC(=O)NCC(NC(=O)c2cccc(NS(=O)(=O)c3ccc(-c4ccccc4)cc3)c2)C(=O)NCCCCC(NC(=O)COCCOCCNC(=O)CCCCC2SCC3NC(=O)NC32)C(N)=O)cc1OC (stereo not drawn) [Compound 14a] | 

Continued, molecule first:

Row | Compound | Kd (Hsp70 [1]) | FU microarray HSP70-GST (Hsp70-GST [2]) | Kd (Hsp90 [3]) [nM] | other results
9 | Cc1oncc1C(=O)Nc1ccc(O)c(C(=O)NCC(NC(=O)c2ccc(NC(=O)CCC(=O)c3ccc(-c4ccccc4)cc3)cc2)C(=O)NCCCCC(NC(=O)COCCOCCNC(=O)CCCCC2SCC3NC(=O)NC32)C(N)=O)c1 (stereo not drawn) [Compound 2a] | 1.58 nM | 28 653 FU |  | retention of Hsp70 from crude cell lysates (Hsp70 [4]): retained Hsp70; % Protein Coverage [5]: 24.8%; capture of Hsp70 on streptavidin magnetic beads (Hsp70-GST [6]): retained Hsp70; retention of carbonic anhydrase from crude cell lysates (carbonic anhydrase): no carbonic anhydrase; KD HSP90 (Hsp90 [3]): no measurable affinity; also recorded: Low binding; capture of Hsp90 on streptavidin magnetic beads (Hsp90 [7]): not Hsp90
10 | Nc1ncnc2c1ncn2[C@@H]1O[C@H](COP(=O)(O)OP(=O)(O)O)[C@@H](O)[C@H]1O [ADP] |  |  |  | Kd (Hsp70 [8]): 260 nM
11 | NC(=O)C(CCCCNC(=O)C(CCCCNC(=O)c1ccc2[nH]nc(Br)c2c1)NS(=O)(=O)c1ccc(-c2ccccc2)cc1)NC(=O)COCCOCCNC(=O)CCCCC1SCC2NC(=O)NC21 (stereo not drawn) [Compound 7a] | 1.34 nM | 24 143 FU | 3.17 | 
12 | Cc1ccc(/C=C/C(=O)NCC(NC(=O)c2ccc(NC(=O)CCC(=O)c3ccc(-c4ccccc4)cc3)cc2)C(N)=O)cc1 (stereo not drawn) [Compound 1b] |  |  |  | IC50 (Hsp70 [9]): 31 nM; inhibition at 1 µM (Hsp70/Hsp40): > 50%; ATPase inhibition (Hsp70/Hsp40): complete inhibition
13 | CSc1nnc(CCCOC(=O)NCC(NC(=O)CC2=C(C)C(=Cc3ccc([S+](C)[O-])cc3)c3ccc(F)cc32)C(=O)NCCCCC(NC(=O)COCCOCCNC(=O)CCCCC2SCC3NC(=O)NC32)C(N)=O)n1-c1ccc(Cl)cc1Cl (stereo not drawn) [Compound 4a] | 2.69 nM | 28 566 FU | 10.7 | 
14 | COc1ccc(C=CC(=O)NCC(NC(=O)c2cccc(NC(=O)CCC(=O)c3ccc(-c4ccccc4)cc3)c2)C(=O)NCCCCC(NC(=O)COCCOCCNC(=O)CCCCC2SCC3NC(=O)NC32)C(N)=O)cc1OC (stereo not drawn) [Compound 8a] | 0.8 nM | 27 982 FU | 16.9 | 
15 | CCCCCCN(C(=O)CCCCCN1C(=O)NC(c2ccc(-c3ccccc3)cc2)C(C(=O)OCc2ccccc2)=C1C)C(C(=O)NCCCC)c1ccc(OCC(=O)OC)c(C(=O)OC)c1 (stereo not drawn) [MAL3-101] |  |  |  | effect on Hsp70 ATPase activity (Hsp70 [10]): stimulate this activity
16 | COc1ccc(C=CC(=O)NCC(NC(=O)c2ccc(NC(=O)COCC(=O)NC(C)COc3c(C)cccc3C)cc2)C(=O)NCCCCC(NC(=O)COCCOCCNC(=O)CCCCC2SCC3NC(=O)NC32)C(N)=O)cc1OC (stereo not drawn) [Compound 10a] | 1.88 nM | 28 961 FU | 2.97 | 
17 | Cc1oncc1C(=O)Nc1ccc(O)c(C(=O)NCC(NC(=O)c2ccc(NC(=O)CCC(=O)c3ccc(-c4ccccc4)cc3)cc2)C(N)=O)c1 (stereo not drawn) [Compound 2b] |  |  |  | inhibition at 1 µM (Hsp70/Hsp40): > 50%; ATPase inhibition (Hsp70/Hsp40): complete inhibition
